Experiments:
[1] = test system: DM331 and SK-MEL-24 cells from PLX4720-resistant tumors; assay: In vitro sensitivity of cells extracted ex vivo from PLX4720-resistant tumors; format: cell-based, human; details: DM331 and SK-MEL-24 cells extracted ex vivo
Protocol: Proliferation and viability of cultured cells was measured by CELLTITER96® Non-radioactive Cell Proliferation Assay (Promega Corporation; Madison, Wis., United States of America). Briefly, various wild type and mutant BRAF melanoma cells were seeded in 96 well plates and treated with pevonedistat, vemurafenib, or the combination pevonedistat and vemurafenib at various concentrations. Control cells were treated with DMSO. 96 hours following treatment, cells were stained with the dye solution according to the manufacturer's protocol. Absorbance was recorded at 570 nm and growth curves were established. […] Cells were counted every 24 hours using a COUNTESS™ Automated Cell Counter (INVITROGEN™, Carlsbad, Calif., United States of America), and harvested at the indicated times for PI staining and FACS analysis (cell cycle profile) or for immunoblotting.
The effects of pevonedistat, vemurafenib, and/or silencing of various cell cycle-associated proteins by siRNA on cell cycle distribution and rereplication were assessed by propidium iodide staining and flow cytometry of asynchronous melanoma cultures. […]

[2] = test system: cullin ubiquitylation substrates (CDT2, CDT1, p21, p27) in DM93 cells; assay: Immunoblotting of cullin ubiquitylation substrates; format: cell-based, human; details: DM93, increasing doses for 24 hours; significant levels at 1 μM
Protocol: Melanoma cells were lysed with RIPA lysis buffer (50 mM Tris, pH 8.0; 150 mM NaCl, 1% NP-40; 0.5% sodium deoxycholate; 0.1% SDS; 1 mM Benzamidine-HCl; 0.5 μg/ml Leupeptin; 0.5 μg/ml Aprotinin; 1 μg/ml pepstatin; 20 mM NaF; 20 mM Na3VO4), and equal amounts of protein were electrophoretically separated in a polyacrylamide 8-12% gel (Bio-Rad Laboratories, Inc., Hercules, Calif., United States of America), trans-blotted to a nitrocellulose membrane, and incubated overnight with primary antibodies at 4° C. The following antibodies were used: Anti-p21 (C19), anti-p27 (C19), anti-p53 (DO-1), and anti-tubulin (10D8) were purchased from Santa Cruz Biotechnology, Inc. (California, United States of America). Antibodies against SET8, CHK1, CHK2, p-CHK1 (S375), p-CHK2 (T68), H2AX and p-H2AX (γH2AX; T139), and PARP were purchased from Cell Signaling Technology, Inc. (Danvers, Mass., United States of America). Anti-Cul3 was purchased from Bethyl Laboratories (Montgomery, Tex., United States of America). Anti-CDT1 and anti-CDT2 antibodies were described before (Abbas et al., 2010). The immunoblot signals were detected by enhanced chemiluminescence. For murine melanoma xenografts, tumors were isolated, washed three times with cold PBS, and frozen at −80° C. until use. […]

DM93 cells = assay: Cell cycle distribution and rereplication by propidium iodide staining and FACS; format: cell-based, human; details: for DM93 cells exhibiting >4N DNA content / Percent Cells in S and G2/M / Percent Cells in sub-G1: 1 μM pevonedistat; for Percent Cells in S and G2/M / Percent Cells in sub-G1 / Percent of Cells in S and G2/M / Percent of Cells in sub-G1: DM93 cells; for rereplication after transient exposure and washout: analyzed 48 hours later
Protocol: The effects of pevonedistat, vemurafenib, and/or silencing of various cell cycle-associated proteins by siRNA on cell cycle distribution and rereplication were assessed by propidium iodide staining and flow cytometry of asynchronous melanoma cultures. Synchronization of cells was not employed to avoid bias and to be able to measure the impact of these perturbations on proliferating cancer cells. […] Cells were washed with cold PBS, harvested, and fixed in 70% (v/v) ethanol. Cells were subsequently treated with 20 μg of DNase-free RNase and stained with propidium iodide according to instructions of the manufacturer. Samples were analyzed on a FACSCAN™ (Becton, Dickinson and Company, Franklin Lakes, N.J., United States of America) and G0-G1, S, and G2-M fractions were segmented, and apoptotic (sub-G1 DNA content) and rereplicating (>G2/M DNA content) fractions were determined using FLOWJO® (FLOWJO, LLC, Ashland, Oreg., United States of America) and ModFit (Verity Software House, Topsham, Me., United States of America) software.

Trl46 HNSCC cells = details: Trl46, 1 μM pevonedistat; cited from earlier work
[3] = 24 hours, 0.025 μM pevonedistat
[4] = 24 hours, 0.100 μM pevonedistat
[5] = 24 hours, 0.500 μM pevonedistat (first row so printed, r9)
[6] = 24 hours, 0.500 μM pevonedistat (r11)
[7] = 24 hours, 0.750 μM pevonedistat
[8] = 24 hours, 1.000 μM pevonedistat
[9] = 24 hours, 2.000 μM pevonedistat

SMILES: NS(=O)(=O)OCC1CC(n2ccc3c(NC4CCc5ccccc54)ncnc32)CC1O [pevonedistat, ((1S,2S,4R)-4-(4-((1S)-2,3-Dihydro-H-inden-1-ylamino)-7H-pyrrolo(2,3-d)pyrimidin-7-yl)-2-hydroxycyclopentyl)methyl sulphamate]
- sensitivity in vitro of cells from PLX4720-resistant tumors [1]: sensitive to pevonedistat-induced rereplication and inhibition
- cullin ubiquitylation substrates CDT2, CDT1, p21 and p27 [2]: dose-dependent increase
- DM93 cells exhibiting >4N DNA content (DM93 cells; by 72 hours of treatment): 68%
- DM93 cells exhibiting >4N DNA content (DM93 cells; within 24 hours): 18%
- cells undergoing rereplication (DM93 cells; DM93, 1 μM pevonedistat for 48 hours): 45%
- Percent of Cells in S and G2/M at 24 hours (DM93 cells; DM93, 1 μM pevonedistat, 24 hours): 27.2%
- Percent of Cells in S and G2/M at 72 Hours (DM93 cells; DM93, 1 μM pevonedistat, 72 hours): 59.2%
- cells undergoing rereplication (DM93 cells; DM93, 72 hours post-treatment): 60%
- lowest drug concentration at which rereplication was observed (DM93 cells; DM93, analyzed at 24 hours): 500 nM
- cells with sub-G1 DNA content (DM93 cells; DM93, pevonedistat, 72 hours): ~7%
- Percent Cells in S and G2/M (DM93 cells; 3 hours): 4.05%
- Percent Cells in sub-G1 (DM93 cells; 3 hours): 1.94%
- Percent Cells in S and G2/M (DM93 cells; 6 hours): 13%
- Percent Cells in sub-G1 (DM93 cells; 6 hours): 0.49%
- Percent Cells in S and G2/M (DM93 cells; 24 hours): 17%
- Percent Cells in sub-G1 (DM93 cells; 24 hours): 1.4%
- Percent Cells in S and G2/M (DM93 cells; 48 hours): 64.7%
- Percent Cells in sub-G1 (DM93 cells; 48 hours): 2.08%
- Percent Cells in S and G2/M (DM93 cells; 72 hours): 68.3%
- Percent Cells in sub-G1 (DM93 cells; 72 hours): 7.08%
- Percent of Cells in S and G2/M (DM93 cells; [3]): 0.57%
- Percent of Cells in sub-G1 (DM93 cells; [3]): 1.72%
- Percent of Cells in S and G2/M (DM93 cells; [4]): 2.21%
- Percent of Cells in sub-G1 (DM93 cells; [4]): 5.62%
- Percent of Cells in S and G2/M (DM93 cells; [5]): 1.11%
- Percent of Cells in sub-G1 (DM93 cells; [5]): 1.61%
- Percent of Cells in S and G2/M (DM93 cells; [6]): 18.1%
- Percent of Cells in sub-G1 (DM93 cells; [6]): 4.49%
- Percent of Cells in S and G2/M (DM93 cells; [7]): 47.4%
- Percent of Cells in sub-G1 (DM93 cells; [7]): 2.05%
- Percent of Cells in S and G2/M (DM93 cells; [8]): 56.6%
- Percent of Cells in sub-G1 (DM93 cells; [8]): 1.21%
- Percent of Cells in S and G2/M (DM93 cells; [9]): 66%
- Percent of Cells in sub-G1 (DM93 cells; [9]): 0.53%
- rereplication after transient exposure and washout (DM93 cells; treated 12 hours): 18%
- rereplication after transient exposure and washout (DM93 cells; treated 24 hours): 60%
- apoptosis (% of cells) (Trl46 HNSCC cells): 65%

From US20200397894A1, “COMPOSITIONS AND METHODS FOR TREATING CANCER” (University of Virginia Patent Foundation, priority 2016, published 2020)
